Measurements published in ChEMBL document CHEMBL1201862, “PubChem BioAssay data set” (2004).
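Cultured in 96-well plates, cells were exposed to test compound for 48 hours across five concentrations. Abbreviation: GI50, concentration required for 50% inhibition of growth.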 Activity calls are given as the source filed them. Cut-off read from the data, not from the text of the source: active = GI50 up to about 1.1 µM and inactive = higher.

Tests used:
Assay in all cases: DTP human tumour cell line panel, 48 h
[1] = test system: ACHN
[2] = test system: COLO 205
[3] = test system: EKVX
[4] = test system: HCC 2998
[5] = test system: HCT-15
[6] = test system: HL-60
[7] = test system: HT-29
[8] = test system: LOX IMVI
[9] = test system: M14
[10] = test system: Malme-3M
[11] = test system: NCI-H460
[12] = test system: OVCAR-4
[13] = test system: OVCAR-8
[14] = test system: SK-MEL-2
[15] = test system: SK-MEL-5
[16] = test system: SK-OV-3
[17] = test system: SNB-19
[18] = test system: SNB-75
[19] = test system: UO-31

Measured: GI50

Cc1ccccc1NC(=O)/C(=N/NC(=O)CC#N)C1C(=O)N(c2ccccc2)N=C1N (stereo unspecified)
inactive: [1] 60.1 µM | [2] > 100 µM | [3] > 100 µM | [4] > 100 µM | [6] 37.9 µM | [7] > 100 µM | [8] > 100 µM | [9] > 100 µM | [10] > 100 µM | [11] > 100 µM | [12] > 100 µM | [13] > 100 µM | [14] > 100 µM | [15] > 100 µM | [16] > 100 µM | [17] > 100 µM | [18] > 100 µM | [19] > 100 µM
> 100 µM: [5]

CC1(C)C(=O)N(CCCCCCN2C(=O)C(C)(C)c3ccccc32)c2ccccc21
inactive: [1] 25.6 µM | [2] 22.1 µM | [3] 38.1 µM | [4] 71.6 µM | [6] 2.04 µM | [7] 19 µM | [8] 22 µM | [9] 24.6 µM | [10] 25.9 µM | [11] 54.3 µM | [12] 23.4 µM | [13] 51.3 µM | [14] 48.6 µM | [15] 18.6 µM | [16] > 100 µM | [17] 68.5 µM | [18] 39.1 µM | [19] 31.2 µM
34.3 µM: [5]

COC(=O)C1=CC2C=CC(C1C(=O)OC)C1C(C(=O)OC)=C(C(=O)OC)C(C(=O)OC)=C(C(=O)OC)C21OC (stereo unspecified)
inactive: [1] > 100 µM | [2] > 100 µM | [3] > 100 µM | [4] > 100 µM | [6] > 100 µM | [7] > 100 µM | [8] > 100 µM | [9] > 100 µM | [10] > 100 µM | [11] > 100 µM | [12] > 100 µM | [13] > 100 µM | [14] > 100 µM | [15] > 100 µM | [16] > 100 µM | [18] > 100 µM | [19] > 100 µM
> 100 µM: [5]

COc1ccc2cccc(C(=O)c3ccc(C)c4c3CCC4)c2c1
19 µM: [5]
inactive: [1] 56 µM | [2] 29 µM | [3] 51.2 µM | [4] 19.6 µM | [6] 14.6 µM | [7] 33 µM | [8] 19.5 µM | [9] 21.4 µM | [10] 29.2 µM | [11] 20.3 µM | [12] 85.5 µM | [13] 43.2 µM | [14] 34.6 µM | [15] 19.5 µM | [16] 64.3 µM | [17] > 100 µM | [18] > 100 µM | [19] 30.2 µM

CCN(CC)CCCNc1nccc2c(C)c3[nH]c4ccncc4c(=O)c3cc12
inactive: [1] 1.8 µM | [2] 2.55 µM | [3] 5.68 µM | [4] 2.37 µM | [6] 2.79 µM | [7] 1.32 µM | [9] 2.84 µM | [10] 3.83 µM | [11] 1.71 µM | [14] 2.89 µM | [15] 3.57 µM | [16] 3.77 µM | [17] 2.87 µM | [18] 2.24 µM | [19] 9.79 µM
8.71 µM: [5]
active: [8] 0.975 µM | [12] 0.604 µM | [13] 0.557 µM

O=C1c2cccc3cccc(c23)C(=O)N1CCN(CCO)CCO
inactive: [1] 23.9 µM | [2] 15.6 µM | [3] 31.1 µM | [4] 26.2 µM | [6] > 100 µM | [7] 27.9 µM | [8] 18 µM | [9] 20 µM | [10] 21.2 µM | [11] 23.4 µM | [12] 25.5 µM | [13] 16.3 µM | [14] 12.2 µM | [15] 17.2 µM | [16] 55.1 µM | [17] 38.3 µM | [18] 30.1 µM | [19] 30.5 µM
22.8 µM: [5]

CCOC(=O)C1=C(C)NC(=S)NC1c1ccccc1 (stereo unspecified)
inactive: [1] > 100 µM | [2] > 45 µM | [3] > 100 µM | [4] > 100 µM | [6] 71.8 µM | [7] > 96.4 µM | [8] > 63.7 µM | [9] > 100 µM | [10] > 100 µM | [11] > 59.3 µM | [12] 32.3 µM | [13] > 100 µM | [14] > 100 µM | [15] > 83.9 µM | [16] > 100 µM | [18] > 100 µM | [19] 35.9 µM
> 41.3 µM: [5]
